Source: patent US20030187035A1, “Substituted hydrazones as inhibitors of cyclooxygenase-2” (priority 2001, published 2003)

Tests used:
mice = assay: In vivo toxicity assay, survival after intraperitoneal dosing; conditions: survival at seven days
Protocol: The compound of Example 4 was examined for in vivo toxicity in mice. Mice received intraperitoneal doses of compound suspended in DMSO, ranging from 25 to 400 mg/kg. Survival at seven days was determined.

DLD-1 cells = assay: Soft agar assay, anchorage-independent colony growth; assay type: cell-based; conditions: DLD-1 human colorectal carcinoma cells in soft agar, three weeks
Protocol: The Example 2, 3, 4 and 9 compounds were compared to the COX-2 inhibitor celecoxib in inhibiting the growth of DLD-1 cells in soft agar. DLD-1 cells are human colorectal carcinoma cells that overexpress COX-2. DLD-1 cells grow in soft agar and form tumors in nude mice. The soft agar assay was performed as follows. Bottom agar was first prepared as a 3 mL layer of 0.8% noble agar prepared in complete growth medium (DMEM containing 10% FBS and 500 units of penicillin-streptomycin) and placed into 60 mm^2 tissue culture dishes. The tumor cells were trypsinized from normal growth flasks while in exponential growth. The cells were counted by using a hemacytometer and 5.0×10^4 viable cells were mixed with 0.4% noble agar containing growth medium and various concentrations of drugs. Non-treated control plates received DMSO alone. Each drug concentration was run in duplicate. The concentration range was normally between 10 μM to 75 μM. The plates were incubated at 37° C. under 95% humidity for three weeks and stained with a 0.05% (w/v) nitroblue tetrazolium solution. This solution will only stain viable cells so that all growing cell in the form of colonies will appear blue. The plates were photographed using an Olympus stereoscope mounted with a SONY digital camera system.

DLD-1 = assay: In vitro cytotoxicity assay (trypan exclusion, viable cell count); assay type: cell-based; conditions: DLD-1 human colo-rectal carcinoma, 96 hours
Protocol: (§1) The human colo-rectal carcinoma cell lines DLD-1, HT29, and HCT 116, and the human prostate carcinoma cell line DU145, were grown exponentially and plated onto 6 well dishes at a cell density of 1.0×10^5 cells per 35 mm well. Various concentration of 4-bromobenzaldehyde-4-sulfamylphenylhydrazone (Ex. 4) or DMSO were added 24 hours later. The number of viable cells were determined at each concentration tested 96 hours later by trypan exclusion using a hemacytometer. The GI50 (concentration of drug that inhibits 50% of tumor cell growth when compared to tumor cells treated with same volume of DMSO) was determined for each cell line.

DU145 = assay: as above; assay type: cell-based; conditions: DU-145; DU145 human prostate carcinoma, 96 hours
Protocol: as §1

HCT116 = assay: as above; assay type: cell-based; conditions: HCT-116; HCT116 human colo-rectal carcinoma, 96 hours
Protocol: as §1

HT29 = assay: as above; assay type: cell-based; conditions: HT-29; HT29 human colo-rectal carcinoma, 96 hours
Protocol: as §1
The same protocol was used to compare the growth inhibitory activity of 4-bromobenzaldehyde-4-sulfamylphenylhydrazone and celecoxib against the human colo-rectal tumor cell line HT29. The data are plotted as the percent of viable cells remaining as compared to DMSO (non-treated) cells.

[1] = Bioavailability assay, plasma drug concentration after intraperitoneal injection; assay type: in vivo; conditions: mice; for concentration at 120 min: mouse, plasma, ip, 120 minutes post injection
Protocol: The bioavailability of compound of Example 4 was examined as follows. Mice received a single dose (25 or 50 mg/kg) of compound suspended in DMSO via intraperitoneal injection. Plasma drug concentration was measured 120 minutes post injection.

NS(=O)(=O)c1ccc(NN=Cc2ccc(Br)cc2)cc1 [Example 4, 4-Bromobenzaldehyde-4-sulfamylphenylhydrazone]
Percent Survival of Mice (mice; 25 mg/kg intraperitoneal): 100%
Percent Survival of Mice (mice; 50 mg/kg intraperitoneal): 100%
Percent Survival of Mice (mice; 100 mg/kg intraperitoneal): 100%
Percent Survival of Mice (mice; 200 mg/kg intraperitoneal): 100%
Percent Survival of Mice (mice; 400 mg/kg intraperitoneal): 80%
In vivo toxicity in mice (in words) (mice; intraperitoneal doses 25 to 400 mg/kg): very low mammalian toxicity
Concentration Required for Complete DLD-1 Colony Growth Inhibition (DLD-1 cells): <20 µM
Concentration Required for Complete DLD-1 Colony Growth Inhibition (DLD-1 cells; listed as Ex. 4): 20 µM
GI50 (DLD-1): 30 µM
GI50 (DU145): 30 µM
GI50 (HCT116): 30 µM
GI50 (HT29): 8 µM
Bioavailability (in words) ([1]; single dose 25 or 50 mg/kg intraperitoneal): high level of bioavailability
concentration at 120 min ([1]; single dose 25 mg/kg intraperitoneal): 38 µg/mL
concentration at 120 min ([1]; single dose 50 mg/kg intraperitoneal): 165 µg/mL

Cc1ccc(-c2cc(C(F)(F)F)nn2-c2ccc(S(N)(=O)=O)cc2)cc1 [celecoxib, reference compound]
GI50 (HT29): 25 µM

NS(=O)(=O)c1ccc(NN=Cc2ccc(Cl)cc2)cc1 [Example 3, 4-Chlorobenzaldehyde-4-sulfamylphenylhydrazone]
Concentration Required for Complete DLD-1 Colony Growth Inhibition (DLD-1 cells): 20 µM

COc1ccc(C=NNc2ccc(S(N)(=O)=O)cc2)cc1 [Example 9, 4-Methoxybenzaldehyde-4-sulfamylphenylhydrazone]
Concentration Required for Complete DLD-1 Colony Growth Inhibition (DLD-1 cells): >75 µM

NS(=O)(=O)c1ccc(NN=Cc2ccc(F)cc2)cc1 [Example 2, 4-Fluorobenzaldehyde-4-sulfamylphenylhydrazone]
Concentration Required for Complete DLD-1 Colony Growth Inhibition (DLD-1 cells): 30 µM
